Experiments:
[1] = Solubility of API CLX-155 in organic solvents; assay type: physicochemical
[2] = Moisture and thermal sensitivity of CLX-155; assay type: physicochemical
From the text: Dry granulation is also referred as pre-compression or double compression and is an agglomeration process designed to improve the flow and compression characteristics of powders that would otherwise have poor flow &/or compressibility. The process involves compaction of powder particles into larger pieces or compacts which are subsequently broken down into granules that can be further processed into dosage forms. Dry granulation is suitable for the compound which is sensitive to moisture and temperature.

## CCCCCCCC(=O)Nc1nc(=O)n([C@@H]2O[C@H](C)[C@@H](OC(C)=O)[C@H]2OC(C)=O)cc1F [CLX-155, (2R, 3R, 4R, 5R)-2-(5-Fluoro-4-octanamido 2-oxopyrimidine-1(2H)-yl)-5-methyl-tetrahydrofuran-3,4-diyl-diacetate]
[1]; in Acetonitrile
  Solubility: Slightly Soluble
[1]; in Methanol
  Solubility: Freely soluble
[2]
  Stability towards moisture: moisture sensitive
  Thermal stability: thermolabile
